Measurements from article PMC6481345, “A novel anti-melanoma SRC-family kinase inhibitor” (Oncotarget, 2019).

How the values were obtained:
ERBB3 = molecular target: T1, ERBB3 (Homo sapiens, UniProt P21860); assay: KiNativ in situ kinase profiling in melanoma cell lysates; type: binding; settings: 3-point dose response
T1 construct: we tested the endogenous kinome response to SAB298; host or cells: YUSIV and YUSIK melanoma cell lysates
Protocol: (§1) The effect of SAB298 on a panel of 36 recombinant kinases, was screed with the radioisotope filter binding assay employing 10 concentrations of the compound with 10 µM ATP (Reaction Biology Corporation, Malvern, PA). In addition, we tested the endogenous kinome response to SAB298 (0.05 µM, 0.5 µM and 5 µM) in lysates from two melanoma cell lines (YUSIV and YUSIK) employing the KiNativ® platform (ActivX Biosciences Inc., La Jolla, CA). KiNativ® is a robust, high performance mass spectrometry (LC-MS^2) assay that uses biotinylated probes to measure relevant changes in the affinity to the ATP-binding sites of 205 native kinases as a function of cellular context. We also validated SAB298 effect on the activity of SRC-family kinases by probing for phosphorylated Y416, the marker of activated SFKs, with anti-IEDNEpYTAR antibodies (also known as Y419, #2101, Cell Signaling Technology, Beverly, MA). In some cases the cells were incubated overnight with 20 µM proteasome inhibitor MG-132 (CAS 133407-82-6, Millipore Sigma, Burlington, MA) to rescue degradation.

RIPK2 = molecular target: T2, RIPK2 (Homo sapiens, UniProt O43353); assay: as above; type: binding; settings: RIPK2 in YUSIK lysate; 3-point dose response
T2 construct: we tested the endogenous kinome response to SAB298; host or cells: YUSIV or YUSIK melanoma cell lysate
Protocol: as §1

mTOR = molecular target: T3, mTOR (Homo sapiens, UniProt P42345); assay: as above; type: binding; settings: 3-point dose response
T3 construct: we tested the endogenous kinome response to SAB298; host or cells: YUSIV and YUSIK melanoma cell lysates
Protocol: as §1

MEK1 = molecular target: T4, MEK1 (Homo sapiens, UniProt Q02750); assay: as above; type: binding; settings: MEK1 in YUSIV lysate; 3-point dose response
T4 construct: we tested the endogenous kinome response to SAB298; host or cells: YUSIV or YUSIK melanoma cell lysate
Protocol: as §1

YUHEF melanoma cells = assay: CellTiter-Glo Luminescent Cell Viability Assay; type: cell-based; settings: Homo sapiens, WT/WT, 72 hrs
Protocol: (§2) The melanoma cells were grown in OptiMEM (Invitrogen, Carlsbad, CA) supplemented with 5% fetal calf serum and antibiotics. The normal human melanocytes (NBMEL) were grown in medium supplemented with bFGF, IBMX and dbcAMP [32]. Most of the Yale melanoma cell lines were characterized by next-generation sequencing (Supplementary Table 2).
(§3) Cell proliferation was measured with the CellTiter-Glo® Luminescent Cell Viability Assay (Promega Corporation, Madison, WI). Melanoma cells were seeded in 96-well plates in triplicate or quadruplet wells, with increasing concentrations of kinase inhibitors for 72 hrs. The rate of proliferation was also tested after knockdown of different SRC-family kinases (SFK) with hairpin lentivirus shRNA as indicated. […] The statistical significance of synergism of response to drug combinations was evaluated by following Chou and Talalay algorithm. See also details in Supplementary Material.

YUTICA melanoma cells = assay: CellTiter-Glo Luminescent Cell Viability Assay; type: cell-based; settings: Homo sapiens, NRAS Q61R, 72 hrs
Protocol: as §2, §3

YUPEPO melanoma cells = assay: CellTiter-Glo Luminescent Cell Viability Assay; type: cell-based; settings: Homo sapiens, WT/WT, GNA11 Q209L, 72 hrs
Protocol: as §2, §3

YUGEN8 melanoma cells = assay: CellTiter-Glo Luminescent Cell Viability Assay; type: cell-based; settings: Homo sapiens, YUGEN8, BRAF V600E, 72 hrs
Protocol: as §2, §3

YUTOGS melanoma cells = assay: CellTiter-Glo Luminescent Cell Viability Assay; type: cell-based; settings: Homo sapiens, WT/WT, 72 hrs
Protocol: as §2, §3

YUROL melanoma cells = assay: CellTiter-Glo Luminescent Cell Viability Assay; type: cell-based; settings: Homo sapiens, WT/WT, 72 hrs
Protocol: as §2, §3

YUDOSO melanoma cells = assay: CellTiter-Glo Luminescent Cell Viability Assay; type: cell-based; settings: Homo sapiens, NRAS Q61K, 72 hrs
Protocol: as §2, §3

YURIF melanoma cells = assay: CellTiter-Glo Luminescent Cell Viability Assay; type: cell-based; settings: Homo sapiens, BRAF V600K, 72 hrs
Protocol: as §2, §3

YUNIS melanoma cells = assay: CellTiter-Glo Luminescent Cell Viability Assay; type: cell-based; settings: Homo sapiens, HRAS Q61K, 72 hrs
Protocol: as §2, §3

YUHIMO melanoma cells = assay: CellTiter-Glo Luminescent Cell Viability Assay; type: cell-based; settings: Homo sapiens, PDE4DIP-BRAF fusion, 72 hrs
Protocol: as §2, §3

YUCHIME melanoma cells = assay: CellTiter-Glo Luminescent Cell Viability Assay; type: cell-based; settings: Homo sapiens, BRAF V600K/M, 72 hrs
Protocol: as §2, §3

YUKSI melanoma cells = assay: CellTiter-Glo Luminescent Cell Viability Assay; type: cell-based; settings: Homo sapiens, BRAF V600K, 72 hrs
Protocol: as §2, §3

YUGANK melanoma cells = assay: CellTiter-Glo Luminescent Cell Viability Assay; type: cell-based; settings: Homo sapiens, NRAS Q61K, 72 hrs
Protocol: as §2, §3

SK-MEL-28 melanoma cells = assay: CellTiter-Glo Luminescent Cell Viability Assay; type: cell-based; settings: Homo sapiens, SK-MEL-28, BRAF V600E, 72 hrs
Protocol: as §2, §3

YUCRATE melanoma cells = assay: CellTiter-Glo Luminescent Cell Viability Assay; type: cell-based; settings: Homo sapiens, BRAF G469A, 72 hrs
Protocol: as §2, §3

SK-MEL-23 melanoma cells = assay: CellTiter-Glo Luminescent Cell Viability Assay; type: cell-based; settings: Homo sapiens, SK-MEL-23, WT/WT, 72 hrs
Protocol: as §2, §3

YUZEST melanoma cells = assay: CellTiter-Glo Luminescent Cell Viability Assay; type: cell-based; settings: Homo sapiens, BRAF V600E, 72 hrs
Protocol: as §2, §3

YUFURL melanoma cells = assay: CellTiter-Glo Luminescent Cell Viability Assay; type: cell-based; settings: Homo sapiens, NRAS G12D, 72 hrs
Protocol: as §2, §3

YULIPPY melanoma cells = assay: CellTiter-Glo Luminescent Cell Viability Assay; type: cell-based; settings: Homo sapiens, BRAF V600E, 72 hrs
Protocol: as §2, §3

YUMAC melanoma cells = assay: CellTiter-Glo Luminescent Cell Viability Assay; type: cell-based; settings: Homo sapiens, BRAF V600K, 72 hrs
Protocol: as §2, §3

CSK = CSK (Homo sapiens, UniProt P41240); assay: KiNativ in situ kinase profiling in melanoma cell lysates; type: binding; set-up: we tested the endogenous kinome response to SAB298; host or cells: YUSIV and YUSIK melanoma cell lysates; settings: 3-point dose response
Protocol: as §1

ERBB2 = ERBB2 (Homo sapiens, UniProt P04626); assay: as above; type: binding; set-up: we tested the endogenous kinome response to SAB298; host or cells: YUSIV and YUSIK melanoma cell lysates; settings: for IC50: 3-point dose response
Protocol: as §1

Sequence of ERBB2 (P04626 23-1255): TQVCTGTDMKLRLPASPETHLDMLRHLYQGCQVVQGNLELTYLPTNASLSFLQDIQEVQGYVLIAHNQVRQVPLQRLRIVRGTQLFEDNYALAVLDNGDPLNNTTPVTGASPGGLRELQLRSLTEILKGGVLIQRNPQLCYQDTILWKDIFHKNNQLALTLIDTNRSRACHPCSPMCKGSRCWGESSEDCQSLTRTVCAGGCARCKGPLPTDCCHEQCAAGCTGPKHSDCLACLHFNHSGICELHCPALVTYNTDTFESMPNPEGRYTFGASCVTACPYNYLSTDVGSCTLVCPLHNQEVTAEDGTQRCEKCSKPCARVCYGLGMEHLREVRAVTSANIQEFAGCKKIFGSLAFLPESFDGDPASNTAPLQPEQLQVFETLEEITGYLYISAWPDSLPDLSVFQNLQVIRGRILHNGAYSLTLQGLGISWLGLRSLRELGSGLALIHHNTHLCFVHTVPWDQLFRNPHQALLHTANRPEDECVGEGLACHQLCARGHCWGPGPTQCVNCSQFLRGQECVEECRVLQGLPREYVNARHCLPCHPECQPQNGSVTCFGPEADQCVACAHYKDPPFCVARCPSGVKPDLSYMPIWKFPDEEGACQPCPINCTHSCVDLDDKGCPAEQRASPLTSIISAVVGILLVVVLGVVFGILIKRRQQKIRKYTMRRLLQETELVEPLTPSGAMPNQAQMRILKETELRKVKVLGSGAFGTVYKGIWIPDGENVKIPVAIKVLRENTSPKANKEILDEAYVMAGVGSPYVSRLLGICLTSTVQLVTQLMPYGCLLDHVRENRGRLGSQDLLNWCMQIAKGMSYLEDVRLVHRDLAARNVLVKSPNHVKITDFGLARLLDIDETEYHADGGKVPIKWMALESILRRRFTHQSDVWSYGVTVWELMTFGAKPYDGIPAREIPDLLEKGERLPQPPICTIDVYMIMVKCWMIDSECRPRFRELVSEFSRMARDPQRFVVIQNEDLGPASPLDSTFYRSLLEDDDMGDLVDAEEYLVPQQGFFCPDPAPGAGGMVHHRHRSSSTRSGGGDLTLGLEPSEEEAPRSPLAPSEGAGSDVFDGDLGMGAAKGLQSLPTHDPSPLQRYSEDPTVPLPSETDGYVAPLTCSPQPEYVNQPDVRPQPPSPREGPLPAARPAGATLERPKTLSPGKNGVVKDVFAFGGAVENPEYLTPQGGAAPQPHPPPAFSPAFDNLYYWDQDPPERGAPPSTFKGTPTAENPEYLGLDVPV
T1 sequence (P21860 20-1342): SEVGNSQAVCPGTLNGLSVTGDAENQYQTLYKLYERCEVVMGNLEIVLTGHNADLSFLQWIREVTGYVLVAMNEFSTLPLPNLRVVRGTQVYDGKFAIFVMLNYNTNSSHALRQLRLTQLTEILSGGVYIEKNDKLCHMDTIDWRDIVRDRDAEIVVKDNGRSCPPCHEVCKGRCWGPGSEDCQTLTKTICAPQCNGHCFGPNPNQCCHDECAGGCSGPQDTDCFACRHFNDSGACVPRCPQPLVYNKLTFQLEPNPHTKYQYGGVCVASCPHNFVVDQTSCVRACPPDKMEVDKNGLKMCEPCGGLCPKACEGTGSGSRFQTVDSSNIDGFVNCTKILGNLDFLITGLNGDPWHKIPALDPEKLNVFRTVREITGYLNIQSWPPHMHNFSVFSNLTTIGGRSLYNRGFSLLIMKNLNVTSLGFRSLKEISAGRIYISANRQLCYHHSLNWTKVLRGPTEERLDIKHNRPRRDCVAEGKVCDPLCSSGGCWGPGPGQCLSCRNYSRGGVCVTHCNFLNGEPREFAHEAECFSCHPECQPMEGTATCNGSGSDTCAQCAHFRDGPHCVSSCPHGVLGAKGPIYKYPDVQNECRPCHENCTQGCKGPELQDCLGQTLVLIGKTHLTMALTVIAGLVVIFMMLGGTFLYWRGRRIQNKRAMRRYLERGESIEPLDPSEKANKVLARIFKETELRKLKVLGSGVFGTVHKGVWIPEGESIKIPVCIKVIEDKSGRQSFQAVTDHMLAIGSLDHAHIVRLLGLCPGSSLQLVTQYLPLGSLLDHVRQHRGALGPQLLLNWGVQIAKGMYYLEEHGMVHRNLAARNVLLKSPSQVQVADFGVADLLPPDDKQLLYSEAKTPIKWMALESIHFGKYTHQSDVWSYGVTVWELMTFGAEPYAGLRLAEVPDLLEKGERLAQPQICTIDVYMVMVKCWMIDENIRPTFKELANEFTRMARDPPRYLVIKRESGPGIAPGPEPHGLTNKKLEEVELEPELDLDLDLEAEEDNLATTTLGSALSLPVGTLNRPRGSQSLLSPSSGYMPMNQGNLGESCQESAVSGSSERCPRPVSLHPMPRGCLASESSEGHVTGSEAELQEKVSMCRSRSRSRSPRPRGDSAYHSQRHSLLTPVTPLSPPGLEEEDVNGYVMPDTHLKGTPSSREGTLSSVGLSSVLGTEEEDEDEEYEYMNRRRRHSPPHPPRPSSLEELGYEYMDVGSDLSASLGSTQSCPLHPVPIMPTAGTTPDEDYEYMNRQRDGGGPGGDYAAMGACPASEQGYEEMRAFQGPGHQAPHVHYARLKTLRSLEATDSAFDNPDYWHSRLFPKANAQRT
Sequence of CSK (P41240 whole entry): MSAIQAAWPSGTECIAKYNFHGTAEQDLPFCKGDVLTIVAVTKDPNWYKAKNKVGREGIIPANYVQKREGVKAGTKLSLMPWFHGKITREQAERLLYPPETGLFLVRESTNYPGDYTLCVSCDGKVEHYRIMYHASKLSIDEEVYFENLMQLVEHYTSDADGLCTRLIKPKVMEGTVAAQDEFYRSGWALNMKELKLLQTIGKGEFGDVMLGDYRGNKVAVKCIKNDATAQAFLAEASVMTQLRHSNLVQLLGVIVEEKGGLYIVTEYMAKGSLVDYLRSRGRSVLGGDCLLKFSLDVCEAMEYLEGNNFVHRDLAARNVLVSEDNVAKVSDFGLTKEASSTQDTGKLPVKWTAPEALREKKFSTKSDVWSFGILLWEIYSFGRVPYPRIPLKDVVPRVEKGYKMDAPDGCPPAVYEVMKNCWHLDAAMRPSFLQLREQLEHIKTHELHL
T2 sequence (O43353 whole entry): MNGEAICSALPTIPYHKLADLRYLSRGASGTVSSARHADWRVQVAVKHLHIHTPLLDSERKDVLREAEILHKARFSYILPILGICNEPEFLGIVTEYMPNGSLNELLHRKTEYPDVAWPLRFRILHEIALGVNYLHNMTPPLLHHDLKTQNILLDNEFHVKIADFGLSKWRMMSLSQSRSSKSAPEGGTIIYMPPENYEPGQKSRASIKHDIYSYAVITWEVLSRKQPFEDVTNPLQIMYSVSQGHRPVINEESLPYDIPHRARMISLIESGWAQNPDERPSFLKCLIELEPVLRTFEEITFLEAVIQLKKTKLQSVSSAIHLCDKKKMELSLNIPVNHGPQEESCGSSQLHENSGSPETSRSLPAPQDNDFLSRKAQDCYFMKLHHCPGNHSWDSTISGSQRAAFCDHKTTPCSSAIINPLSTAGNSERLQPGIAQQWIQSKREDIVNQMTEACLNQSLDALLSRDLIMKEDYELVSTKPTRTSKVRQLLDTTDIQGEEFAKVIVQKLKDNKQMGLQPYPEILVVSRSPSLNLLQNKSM
T4 sequence (Q02750 whole entry): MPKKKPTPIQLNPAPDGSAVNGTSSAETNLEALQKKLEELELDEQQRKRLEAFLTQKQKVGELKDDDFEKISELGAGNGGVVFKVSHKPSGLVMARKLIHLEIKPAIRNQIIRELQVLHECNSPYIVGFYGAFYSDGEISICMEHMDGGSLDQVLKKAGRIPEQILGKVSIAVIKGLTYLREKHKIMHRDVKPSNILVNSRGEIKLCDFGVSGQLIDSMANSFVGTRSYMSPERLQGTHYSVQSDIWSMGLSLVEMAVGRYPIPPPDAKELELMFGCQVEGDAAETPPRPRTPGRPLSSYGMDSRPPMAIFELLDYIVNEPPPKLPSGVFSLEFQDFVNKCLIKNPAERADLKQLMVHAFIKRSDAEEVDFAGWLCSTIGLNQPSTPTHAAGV

Nc1ncnc2c1c(-c1ccc(Oc3ccccc3)cc1)nn2C[C@@H]1SSC[C@@H]1O [SAB298, (3S, 4S)-3-((4-amino-3-(4-phenoxyphenyl)-1H-pyrazolo[3,4-d]pyrimidin-1-yl)methyl)-1,2-dithiolan-4-ol]
IC50 (ERBB3; ERBB3 in YUSIK lysate): 240 nM | IC50 (ERBB3; ERBB3 in YUSIV lysate): 290 nM | IC50 (RIPK2): 20 nM | IC50 (mTOR; mTOR in YUSIK lysate): 2000 nM | IC50 (mTOR; mTOR in YUSIV lysate): 1300 nM | IC50 (MEK1): 2900 nM | IC50 (YUHEF melanoma cells): 257 nM | IC50 (YUTICA melanoma cells): 766 nM | IC50 (YUPEPO melanoma cells): 264 nM | IC50 (YUGEN8 melanoma cells): 115 nM | IC50 (YUTOGS melanoma cells): 347 nM | IC50 (YUROL melanoma cells): 717 nM | IC50 (YUDOSO melanoma cells): 2360 nM | IC50 (YURIF melanoma cells): 500 nM | IC50 (YUNIS melanoma cells): 2580 nM | IC50 (YUHIMO melanoma cells): 237 nM | IC50 (YUCHIME melanoma cells): 2480 nM | IC50 (YUKSI melanoma cells): 582 nM | IC50 (YUGANK melanoma cells): 456 nM | IC50 (SK-MEL-28 melanoma cells): 812 nM | IC50 (YUCRATE melanoma cells): 282 nM | IC50 (SK-MEL-23 melanoma cells): 162 nM | IC50 (YUZEST melanoma cells): 263 nM | IC50 (YUFURL melanoma cells): 371 nM | IC50 (YULIPPY melanoma cells): 111 nM | IC50 (YUMAC melanoma cells): 894 nM | IC50 (CSK; CSK in YUSIK lysate): 910 nM | IC50 (CSK; CSK in YUSIV lysate): 420 nM | higher binding affinity in KiNativ assay compared to radioisotope filtration binding assay (ERBB2; ERBB2): ~20 fold | IC50 (ERBB2; ERBB2 in YUSIK lysate): 530 nM | IC50 (ERBB2; ERBB2 in YUSIV lysate): 410 nM
